{
  "source": "patent US12173088B2",
  "about": "“Anti-microbial peptides” (priority 2018, dated 2024)",
  "key": {"A. baumannii B26-16": {"tested_on": "A. baumannii B26-16", "experiment": "microbe, parasite or virus in culture", "format": "cell-based, Acinetobacter baumannii", "details": "B26-16; read-out: MIC A. baumannii B26-16", "description": "(§1) The bacterial strains used include the Gram-positive bacteria methicillin-resistant Staphylococcus aureus USA300, Enterococcus faecium V286-17 (VRE), S. aureus M838-17 (MRSA) and Gram-negative bacteria E. coli E423-17, E416-7 (ampC), P. aeruginosa E411-17, PA01, K. pneumoniae E406-17, ATCC13883, and A. baumannii B26-16. Bacteria were cultivated in tryptic soy broth (TSB) from BD Bioscience.\n(§2) The antibacterial activity of peptides was evaluated using a standard broth microdilution protocol with minor modifications (Mishra, et al. (2017) Acta Biomater., 49:316-328). In brief, logarithmic phase bacterial cultures (i.e., optical density at 600 nm≈0.5) were diluted to 0.001 OD and aliquoted 90 μL per well into a 96-well polystyrene microplate. Added 10 μL peptides per well with various concentrations, plates were incubated at 37° C., overnight. Post incubation the plates are read at 630 nm using a ChroMate® Microplate Reader (GMI). […] To study the influence of medium conditions on the antimicrobial activity of peptides against S. aureus USA300 at different pHs (6.8, 7.2, and 8.0), 150 mM sodium chloride (NaCl), 5-10% of human serum, mouse plasma, and peritoneal fluid were included into the assays."}, "K. pneumoniae E406-17": {"tested_on": "K. pneumoniae E406-17", "experiment": "microbe, parasite or virus in culture", "format": "cell-based, Klebsiella pneumoniae", "details": "E406-17; read-out: MIC K. pneumoniae E406-17", "description": "(§3) The antibacterial activity of peptides was evaluated using a standard broth microdilution protocol with minor modifications as described (Mishra, et al. (2012) J. Am. Chem. Soc., 134:12426-12429). In brief, logarithmic phase bacterial cultures (i.e., optical density at 600 nm≈0.5) were diluted to OD600 0.001 and partitioned into a 96-well polystyrene microplate at 90 μL per well. After treatment with 10 μL of peptide solutions two fold diluted to various concentrations, microplates were incubated at 37° C. overnight and read on a ChroMate® 4300 Microplate Reader at 630 nm (GMI, Ramsey, MN). […] To study the influence of medium conditions on the antimicrobial activity of peptides against S. aureus USA300, up to 200 mM sodium chloride (NaCl), 2 mM of calcium chloride, 5-10% of human serum, mouse plasma, fluid, or supernatants of tissue homogenates were included into the assays.\nas §1, §2"}, "P. aeruginosa E411-17": {"tested_on": "P. aeruginosa E411-17", "experiment": "microbe, parasite or virus in culture", "format": "cell-based, Pseudomonas aeruginosa", "details": "E411-17; read-out: MIC P. aeruginosa E411-17", "text": "(§4) The bacterial strains used include the Gram-positive strains Staphylococcus aureus USA300 LAC, S. epidermidis 1457, and Bacillus subtilis 168, as well as the Gram-negative isolates Escherichia coli K12 and Acinetobacter baumannii B2367-12. Additional, drug resistance strains include Gram-positive Enterococcus faecium V286-17 (VRE) and S. aureus M838-17 (MRSA) and Gram-negative E. coli E423-17, E. coli E416-17 (ampC), and P. aeruginosa E411-17. Bacteria were cultivated in tryptic soy broth (TSB) (BD Bioscience, MD).\nas §3, §1, §2"}, "E. faecium V286-17 (VRE)": {"tested_on": "E. faecium V286-17 (VRE)", "experiment": "microbe, parasite or virus in culture", "format": "cell-based, Enterococcus faecium", "details": "V286-17 (VRE)", "text": "as §4, §3, §1, §2"}, "in vivo": {"experiment": "in vivo", "details": "BALB/c, mouse, plasma, iv, 10 mg/kg", "description": "The efficacy of the two peptides was also investigated in non-neutropenic mice against S. aureus USA300. A higher bacterial inoculum at 2×10^8 CFU per mouse was used. […] To evaluate the peptide pharmacokinetics (Chhonker, et al. (2018) Biomed. Chromatogr. e4389), the plasma clearance rate of horine after intravenous injection of 10 mg/kg into BALB/c mice was followed."}, "E. coli E423-17": {"tested_on": "E. coli E423-17", "experiment": "microbe, parasite or virus in culture", "format": "cell-based, Escherichia coli", "details": "E423-17; read-out: MIC E. coli E423-17", "text": "as §4, §3, §1, §2"}, "S. aureus USA300": {"tested_on": "S. aureus USA300", "experiment": "microbe, parasite or virus in culture", "format": "cell-based, Staphylococcus aureus", "outline": "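Broth microdilution: log-phase cultures in tryptic soy broth diluted to OD600 0.001, exposed to two-fold diluted peptides at 37° C overnight, growth read at 630 nm. Medium effects on S. aureus USA300 tested with up to 200 mM NaCl, 2 mM CaCl2, 5-10% human serum, mouse plasma, fluids or tissue homogenate supernatants.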"}, "P. aeruginosa PAO1": {"tested_on": "P. aeruginosa PAO1", "format": "cell-based, Pseudomonas aeruginosa", "details": "PAO1", "outline": "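Broth microdilution in tryptic soy broth: log-phase cultures (OD600 ≈0.5) diluted to OD600 0.001, given two-fold peptide dilutions, incubated overnight at 37° C. Growth read at 630 nm.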"}, "E. coli ampC E416-7": {"tested_on": "E. coli ampC E416-7", "format": "cell-based, Escherichia coli", "details": "Table 7", "text": "as §4, §3"}, "Hemolytic assay": {"experiment": "Hemolytic assay", "format": "cell-based, human", "details": "human, human red blood cells, 2% (v/v)", "outline": "(§5)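 HL50 marks the peptide level lysing half of a 2% (v/v) suspension of washed human erythrocytes after 1 h at 37 °C. Released hemoglobin measured at 545 nm, scaled between PBS (0%) and Triton X-100 (2% or 1%; 100%). Selectivity index computed as HL50 over MIC.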"}, "[1]": {"tested_on": "human red blood cells (hRBCs)", "experiment": "Hemolytic assay", "format": "cell-based", "outline": "as §5"}, "S. aureus M838-17 (MRSA)": {"tested_on": "S. aureus M838-17 (MRSA)", "experiment": "microbe, parasite or virus in culture", "format": "cell-based, Staphylococcus aureus", "details": "M838-17; read-out: MIC S. aureus M838-17 (MRSA)", "outline": "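Peptides were serially diluted two-fold against bacteria grown in tryptic soy broth to log phase (OD600 ≈0.5), then seeded at OD600 0.001. Plates were held overnight at 37° C and read at 630 nm. USA300 was also tested at pH 6.8, 7.2 and 8.0, with 150 mM NaCl or 5-10% serum, plasma or peritoneal fluid.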"}, "E. coli ATCC 25922": {"tested_on": "E. coli ATCC 25922", "format": "cell-based, Escherichia coli", "details": "ATCC 25922", "outline": "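Peptides, serially diluted two-fold, were incubated overnight at 37 °C with E. coli ATCC 25922 from log-phase cultures adjusted to OD600 0.001. Turbidity at 630 nm served as the read-out in this broth microdilution format.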"}},
  "note": "Where two headings read alike, the source gives them in different places. Square brackets hold non-standard residues; d marks the D form. Peptide text beside a SMILES is read from it.",
  "data": [
    {"smiles": "CC(C)C[C@@H](NC(=O)[C@@H](Cc1c[nH]c2ccccc12)NC(=O)[C@@H](Cc1c[nH]c2ccccc12)NC(=O)[C@H](N)Cc1c[nH]c2ccccc12)C(=O)N[C@H](CCCNC(=N)N)C(=O)N[C@H](CCCNC(=N)N)C(=O)N[C@H](CCCNC(=N)N)C(=O)N[C@H](Cc1c[nH]c2ccccc12)C(N)=O", "note": "[D-horine] (H-[dW][dW][dW][dL][dR][dR][dR][dW]-NH2; N-terminus and C-terminus assumed)", "values": [
      {"measurement": "MIC", "setting": "A. baumannii B26-16", "value": ">32", "unit": "µM"},
      {"measurement": "MIC", "setting": "K. pneumoniae E406-17", "value": ">32", "unit": "µM"},
      {"measurement": "MIC", "setting": "P. aeruginosa E411-17", "value": 32, "unit": "µM"},
      {"measurement": "MIC", "setting": "E. faecium V286-17 (VRE); read-out: MIC E. faecium V286-17 (VRE)", "value": 4, "unit": "µM"},
      {"measurement": "level at 5 min", "setting": "in vivo", "value": 192, "unit": "µg/mL"},
      {"measurement": "level at 24 h", "setting": "in vivo", "value": 0.17, "unit": "µg/mL"},
      {"measurement": "MIC", "setting": "E. coli E423-17", "value": 16, "unit": "µM"},
      {"measurement": "MIC", "setting": "S. aureus USA300; USA300, read-out: MIC S. aureus USA300 (MRSA)", "value": 4, "unit": "µM"}
    ]},
    {"smiles": "CC(C)C[C@H](NC(=O)[C@H](CC(C)C)NC(=O)[C@H](CCCCN)NC(=O)[C@H](CC(C)C)NC(=O)CNC(=O)[C@H](CC(C)C)NC(=O)[C@H](CO)NC(=O)[C@H](CC(C)C)NC(=O)[C@H](CC(C)C)NC(=O)[C@H](CC(C)C)NC(=O)[C@H](CO)NC(=O)[C@H](CC(C)C)NC(=O)CN)C(N)=O", "note": "[DFT503, GLSLLLSLGLKLL] (H-GLSLLLSLGLKLL-NH2; N-terminus and C-terminus assumed)", "values": [
      {"measurement": "MIC PA (P. aeruginosa PAO1)", "setting": "P. aeruginosa PAO1", "value": ">25", "unit": "µM"},
      {"measurement": "MIC E. coli ampC E416-7", "setting": "E. coli ampC E416-7", "value": ">50", "unit": "µM"},
      {"measurement": "MIC", "setting": "K. pneumoniae E406-17", "value": ">50", "unit": "µM"},
      {"measurement": "MIC", "setting": "P. aeruginosa E411-17", "value": ">50", "unit": "µM"},
      {"measurement": "HC50 at 1 h", "setting": "Hemolytic assay", "value": "> 300", "unit": "µM"},
      {"measurement": "HL50, peptide concentration for 50% hemolysis", "setting": "[1]", "value": ">300", "unit": "µM"},
      {"measurement": "MIC E. faecium V286-17 (VRE)", "setting": "E. faecium V286-17 (VRE)", "value": "3.1 to 6.25", "unit": "µM"},
      {"measurement": "MIC", "setting": "E. coli E423-17", "value": ">50", "unit": "µM"},
      {"measurement": "MIC", "setting": "S. aureus M838-17 (MRSA)", "value": 3.1, "unit": "µM"},
      {"measurement": "MIC", "setting": "S. aureus USA300; 1 mM Ca2+", "value": 1.56, "unit": "µM"},
      {"measurement": "MIC", "setting": "S. aureus USA300; 2 mM Ca2+", "value": 1.56, "unit": "µM"},
      {"measurement": "MIC", "setting": "S. aureus USA300; 50 mM NaCl", "value": "1.56 to 3.1", "unit": "µM"},
      {"measurement": "MIC", "setting": "S. aureus USA300; 100 mM NaCl", "value": "1.56 to 3.1", "unit": "µM"},
      {"measurement": "MIC", "setting": "S. aureus USA300; No salts added, Table 6, by UV", "value": 1.56, "unit": "µM"},
      {"measurement": "MIC", "setting": "S. aureus USA300; USA300", "value": 3.1, "unit": "µM"},
      {"measurement": "MIC SA (S. aureus USA300)", "setting": "S. aureus USA300; USA300", "value": 1.6, "unit": "µM"},
      {"measurement": "MIC", "setting": "S. aureus USA300; USA300, pH 6.8", "value": 3.1, "unit": "µM"},
      {"measurement": "MIC", "setting": "S. aureus USA300; USA300, pH 7.4", "value": "3.1 to 6.2", "unit": "µM"},
      {"measurement": "MIC", "setting": "S. aureus USA300; USA300, pH 8", "value": 3.1, "unit": "µM"},
      {"measurement": "MIC EC (E. coli ATCC 25922)", "setting": "E. coli ATCC 25922", "value": ">25", "unit": "µM"}
    ]}
  ]
}
